From patent US11548900B2, “Oxazino-quinazoline and oxazino-quinoline type compound, preparation method and uses thereof” (BEIJING SCITECH-MQ PHARMACEUTICALS LIMITED, priority 2018, dated 2023)

Key:
HCC827 cells = experiment: Inhibition of cell proliferation, HCC827 (CCK-8, 72 h); type: cell-based; conditions: 72 h incubation
Method: The assay for the inhibition of cell proliferation by small molecular compounds was carried out using the method as follows:
1. 600 μL pancreatin was added to a T75 cell culture flask, which was digested in a 37° C. incubator for about 1 min before 5 mL of DMEM complete culture solution was added, blew evenly, transferred to a 15 mL centrifuge tube, and centrifuged at 1000 rpm for 4 min;
2. The supernatant was removed and 5 mL DMEM complete culture solution was added, blew evenly, and 10 μL cell suspension was taken and mixed with 10 μL 0.4% Trypan Blue, and counted using a cell counter;
3. BT474 and HCC827 cell lines were seeded in 96-well plates at a cell density of 10,000 and 3000 cells/well/80 μL, respectively, and cultured overnight. Only sterile water was added to the 36 wells on the periphery of the 96-well plate without adding cells, and only the 60 wells in the center of the 96-well plate were used for cell assays and controls;
4. Dilution of compounds: the compounds were diluted with a 3-fold dilution to make 10 concentrations in total with an initial concentration of 10 mM;
5. 20 μL of different compounds with different concentrations were added to each well, and 20 μL of complete culture solution was added to the remaining wells. The final concentration of DMSO in each well is 0.25%;
6. After 72 h of incubation, 10 μL CCK-8 reagent was added to each well, and incubated at 37° C. for 1-2 h; and the OD value was read at 450 nm;
7. Cell survival rate (%)=[(As−Ab)/(Ac−Ab)]*100%
As: Assay well (medium containing cell, CCK-8, compound)
Ac: Control well (medium containing cell, CCK-8)
Ab: Blank well (CCK-8, medium without cell and compound)
8. The value was imported into Graphpad Prism5 software for the calculation of IC50s (compound concentration at which 50% maximum survival rate is observed).

HER2 kinase = HER2 kinase (Homo sapiens (Human), UniProt P04626); experiment: Inhibition of HER2 kinase activity (ULight-labeled PolyGT substrate); type: biochemical; conditions: HER2 kinase 10 nM, ATP 10 μM, 2 hours
Procedure, shortened: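 HER2 kinase at 10 nM with 10 μM ATP and 100 nM ULight-PolyGT, 5 min enzyme–compound preincubation, then 2 h reaction at room temperature in the dark. Compounds at 11 3-fold concentrations, 2.5 μM top to 0.042 nM, 1% DMSO, duplicates. TR-FRET 665/615 ratio; IC50 from inhibition versus DMSO and no-compound controls.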

EGFR kinase = EGFR kinase (Homo sapiens (Human), UniProt P00533); experiment: Inhibition of EGFR kinase activity (ULight-labeled JAK-1 (Tyr1023) peptide substrate); type: biochemical; conditions: EGFR kinase 0.35 nM, ATP 150 μM, 2 hours
Procedure, shortened: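 TR-FRET kinase assay: 0.35 nM EGFR, 150 μM ATP, 100 nM substrate, 2 h at room temperature in the dark after 5 min enzyme-compound preincubation, 1% DMSO. Compounds tested as 11-point 3-fold series, 2.5 μM to 0.042 nM final, duplicate; IC50 from 665/615 nm ratio-based inhibition.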

BT474 cells = experiment: Inhibition of cell proliferation, BT474 (CCK-8, 72 h); type: cell-based
Procedure, shortened: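 BT474 and HCC827 seeded at 10,000 and 3000 cells/well respectively, cultured overnight, then exposed to 10-point 3-fold compound dilutions (top stock 10 mM; 0.25% DMSO final) for 72 h. Viability by CCK-8, OD450; survival normalised to untreated and cell-free blanks, IC50 from curve fit.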

[1] = Homo sapiens, BT-474, 72 h incubation

Chain of HER2 kinase (P04626 23-1255): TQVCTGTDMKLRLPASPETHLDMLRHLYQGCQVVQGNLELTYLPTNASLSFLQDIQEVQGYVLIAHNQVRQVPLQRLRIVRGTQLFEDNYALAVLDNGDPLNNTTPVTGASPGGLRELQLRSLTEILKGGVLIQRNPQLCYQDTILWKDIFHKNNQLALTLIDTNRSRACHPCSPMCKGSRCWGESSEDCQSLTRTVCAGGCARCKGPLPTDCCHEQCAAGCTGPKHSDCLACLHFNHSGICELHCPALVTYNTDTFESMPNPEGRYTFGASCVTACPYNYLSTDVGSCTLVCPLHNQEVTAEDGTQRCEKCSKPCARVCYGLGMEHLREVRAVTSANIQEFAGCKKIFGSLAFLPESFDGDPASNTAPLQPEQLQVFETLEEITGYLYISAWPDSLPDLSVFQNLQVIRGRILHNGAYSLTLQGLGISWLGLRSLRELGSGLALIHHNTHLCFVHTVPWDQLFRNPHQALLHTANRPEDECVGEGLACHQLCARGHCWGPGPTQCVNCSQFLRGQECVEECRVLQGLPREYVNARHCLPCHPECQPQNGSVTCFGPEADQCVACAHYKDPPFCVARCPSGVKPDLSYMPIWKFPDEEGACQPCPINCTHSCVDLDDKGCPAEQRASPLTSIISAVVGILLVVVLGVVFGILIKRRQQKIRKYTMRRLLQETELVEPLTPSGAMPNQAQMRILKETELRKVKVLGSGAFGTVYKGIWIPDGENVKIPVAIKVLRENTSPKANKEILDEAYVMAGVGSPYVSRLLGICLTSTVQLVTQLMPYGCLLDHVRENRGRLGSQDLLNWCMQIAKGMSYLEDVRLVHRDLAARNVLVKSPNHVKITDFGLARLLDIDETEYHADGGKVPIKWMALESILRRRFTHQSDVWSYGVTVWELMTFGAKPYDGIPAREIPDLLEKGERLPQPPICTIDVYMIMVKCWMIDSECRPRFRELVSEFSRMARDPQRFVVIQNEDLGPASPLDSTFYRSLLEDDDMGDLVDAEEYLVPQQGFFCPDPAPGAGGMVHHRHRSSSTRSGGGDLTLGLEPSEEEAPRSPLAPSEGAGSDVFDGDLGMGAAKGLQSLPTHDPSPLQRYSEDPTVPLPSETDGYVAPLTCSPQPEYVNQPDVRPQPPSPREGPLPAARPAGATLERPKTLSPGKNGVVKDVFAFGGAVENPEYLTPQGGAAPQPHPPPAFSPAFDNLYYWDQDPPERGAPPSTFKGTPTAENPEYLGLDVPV
Chain of EGFR kinase (P00533 25-1210): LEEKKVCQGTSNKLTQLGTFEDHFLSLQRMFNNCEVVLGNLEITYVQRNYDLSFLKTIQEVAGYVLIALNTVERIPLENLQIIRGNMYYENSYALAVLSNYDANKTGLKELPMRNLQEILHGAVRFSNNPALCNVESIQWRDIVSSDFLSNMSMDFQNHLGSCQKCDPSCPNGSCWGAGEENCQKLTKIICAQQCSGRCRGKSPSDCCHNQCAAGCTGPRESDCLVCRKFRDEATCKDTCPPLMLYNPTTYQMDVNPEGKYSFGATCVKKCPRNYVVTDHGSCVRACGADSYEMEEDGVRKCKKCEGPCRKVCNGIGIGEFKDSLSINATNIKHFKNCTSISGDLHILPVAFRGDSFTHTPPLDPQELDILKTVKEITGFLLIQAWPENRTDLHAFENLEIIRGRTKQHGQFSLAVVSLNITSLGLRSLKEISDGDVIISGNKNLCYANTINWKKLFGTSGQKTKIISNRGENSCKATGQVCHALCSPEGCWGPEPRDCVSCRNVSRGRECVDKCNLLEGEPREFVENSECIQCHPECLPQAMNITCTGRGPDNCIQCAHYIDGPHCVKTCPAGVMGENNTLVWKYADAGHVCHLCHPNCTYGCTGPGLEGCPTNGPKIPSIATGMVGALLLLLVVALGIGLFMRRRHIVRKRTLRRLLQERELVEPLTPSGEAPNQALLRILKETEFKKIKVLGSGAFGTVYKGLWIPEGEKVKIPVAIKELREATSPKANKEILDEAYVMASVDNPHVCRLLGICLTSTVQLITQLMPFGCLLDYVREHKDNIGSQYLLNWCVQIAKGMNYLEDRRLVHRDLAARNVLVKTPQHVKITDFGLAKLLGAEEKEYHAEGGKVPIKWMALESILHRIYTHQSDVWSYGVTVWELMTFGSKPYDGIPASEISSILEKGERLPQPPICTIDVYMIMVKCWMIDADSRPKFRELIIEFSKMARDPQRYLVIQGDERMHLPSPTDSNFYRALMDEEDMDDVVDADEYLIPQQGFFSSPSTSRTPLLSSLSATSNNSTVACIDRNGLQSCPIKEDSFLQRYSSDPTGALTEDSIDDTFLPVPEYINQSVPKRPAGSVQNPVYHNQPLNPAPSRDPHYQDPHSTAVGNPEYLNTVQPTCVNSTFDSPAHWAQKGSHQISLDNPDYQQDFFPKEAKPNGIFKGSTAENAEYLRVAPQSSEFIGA

Row | SMILES | IC50 (HCC827 cells; Homo sapiens) [nM] | IC50 (HER2 kinase) [nM] | IC50 (EGFR kinase) [nM] | IC50 (BT474 cells; [1]) [nM] | IC50 (HCC827 cells) [nM] | IC50 (BT474 cells; 72 h incubation) [nM]
1 | CN(C)C/C=C/C(=O)N1CCOc2c1ccc1ncnc(Nc3ccc(Oc4ccc(F)cc4)cc3)c21 [Example 51, (E)-4-(dimethylamino)-1-(10-((4-(4-fluorophenoxy)phenyl)amino)-2,3-dihydro-4H-[1,4]oxazino[2,3-f]quinazolin-4-yl)but-2-en-1-one] | 500 to 5000 | ≤ 50 | ≤ 50 | ≤ 50 |  | 
2 | COc1ccccc1Oc1ccc(Nc2ncnc3ccc4c(c23)OCCN4C(=O)/C=C/CN(C)C)cc1 [Example 53, (E)-4-(dimethylamino)-1-(10-((4-(2-methoxyphenoxy)phenyl)amino)-2,3-dihydro-4H-[1,4]oxazino[2,3-f]quinazolin-4-yl)but-2-en-1-one] | 500 to 5000 | ≤ 50 | ≤ 50 | ≤ 50 |  | 
3 | CN(C)C/C=C/C(=O)N1CCOc2c1ccc1ncnc(Nc3ccc(Oc4cccnc4)cc3)c21 [Example 54] | 500 to 5000 | ≤ 50 | 500 to 5000 | ≤ 50 |  | 
4 | COc1cccc(Oc2ccc(Nc3ncnc4ccc5c(c34)OCCN5C(=O)/C=C/CN(C)C)cc2)c1 [Example 56, (E)-4-(dimethylamino)-1-(10-((4-(3-methoxyphenoxy)phenyl)amino)-2,3-dihydro-4H-[1,4]oxazino[2,3-f]quinazolin-4-yl)but-2-en-1-one] | 500 to 5000 | ≤ 50 | ≤ 50 | ≤ 50 |  | 
5 | CN(C)C/C=C/C(=O)N1CCOc2c1ccc1ncnc(Nc3ccc(Oc4nccs4)cc3)c21 [Example 57, (E)-4-(dimethylamino)-1-(10-((4-(thiazol-2-yloxy)phenyl)amino)-2,3-dihydro-4H-[1,4]oxazino[2,3-f]quinazolin-4-yl)but-2-en-1-one] | 500 to 5000 | ≤ 50 | 50 to 500 | ≤ 50 |  | 
6 | CN(C)C/C=C/C(=O)N1CCOc2c1ccc1ncnc(Nc3ccc(Oc4ccccc4)c(Cl)c3)c21 [Example 59, (E)-4-(dimethylamino)-1-(10-((3-chloro-4-phenoxyphenyl)amino)-2,3-dihydro-4H-[1,4]oxazino[2,3-f]quinazolin-4-yl)but-2-en-1-one] | 500 to 5000 | ≤ 50 | ≤ 50 | ≤ 50 |  | 
7 | CN(C)C/C=C/C(=O)N1CCOc2c1ccc1ncnc(Nc3ccc(OCc4ccc(F)cc4)cc3)c21 [Example 60, (E)-4-(dimethylamino)-1-(10-((4-((4-fluorobenzyl)oxy)phenyl)amino)-2,3-dihydro-4H-[1,4]oxazino[2,3-f]quinazolin-4-yl)but-2-en-1-one] | 500 to 5000 | ≤ 50 | ≤ 50 | ≤ 50 |  | 
8 | CN(C)C/C=C/C(=O)N1CCOc2c1ccc1ncnc(Nc3ccc(OCc4cccc(F)c4)cc3)c21 [Example 61, (E)-4-(dimethylamino)-1-(10-((4-((3-fluorobenzyl)oxy)phenyl)amino)-2,3-dihydro-4H-[1,4]oxazino[2,3-f]quinazolin-4-yl)but-2-en-1-one] | > 5000 | ≤ 50 | ≤ 50 | ≤ 50 |  | 
9 | CN(C)C/C=C/C(=O)N1CCOc2c1ccc1ncnc(Nc3ccc(OCc4cccc(C(F)(F)F)c4)cc3)c21 [Example 62] |  | ≤ 50 | ≤ 50 |  | > 5000 | 50 to 500
10 | CN(C)C/C=C/C(=O)N1CCOc2c1ccc1ncnc(Nc3ccc(OCc4ccccn4)cc3)c21 [Example 63, (E)-4-(dimethylamino)-1-(10-((4-(pyridin-2-ylmethoxy)phenyl)amino)-2,3-dihydro-4H-[1,4]oxazino[2,3-f]quinazolin-4-yl)but-2-en-1-one] | 500 to 5000 | ≤ 50 | 50 to 500 | ≤ 50 |  | 
11 | CN(C)C/C=C/C(=O)N1CCOc2c1ccc1ncnc(Nc3ccc(OCc4cccs4)cc3)c21 [Example 64, (E)-4-(dimethylamino)-1-(10-((4-(thiophen-2-ylmethoxy)phenyl)amino)-2,3-dihydro-4H-[1,4]oxazino[2,3-f]quinazolin-4-yl)but-2-en-1-one] | 50 to 500 | ≤ 50 | 50 to 500 | ≤ 50 |  | 
12 | CN(C)C/C=C/C(=O)N1CCOc2c1ccc1ncnc(Nc3ccc(OCc4nccs4)cc3)c21 [Example 65, (E)-4-(dimethylamino)-1-(10-((4-(thiazol-2-ylmethoxy)phenyl)amino)-2,3-dihydro-4H-[1,4]oxazino[2,3-f]quinazolin-4-yl)but-2-en-1-one] | 50 to 500 | ≤ 50 | ≤ 50 | ≤ 50 |  | 
13 | CN(C)C/C=C/C(=O)N1CCOc2c1ccc1ncnc(Nc3ccc(SCc4ccccc4)cc3)c21 [Example 66, (E)-4-(dimethylamino)-1-(10-((4-(benzylthio)phenyl)amino)-2,3-dihydro-4H-[1,4]oxazino[2,3-f]quinazolin-4-yl)but-2-en-1-one] | 500 to 5000 | ≤ 50 | ≤ 50 | ≤ 50 |  | 
14 | COc1cc(Nc2ncnc3ccc4c(c23)OCCN4C(=O)/C=C/CN(C)C)ccc1OCc1cccc(F)c1 [Example 68, (E)-4-(dimethylamino)-1-(10-((4-((3-fluorobenzyl)oxy)-3-methoxyphenyl)amino)-2,3-dihydro-4H-[1,4]oxazino[2,3-f]quinazolin-4-yl)but-2-en-1-one] | 500 to 5000 | ≤ 50 | ≤ 50 | ≤ 50 |  | 
15 | CN(C)C/C=C/C(=O)N1CCOc2c1ccc1ncnc(Nc3ccc(OCc4cccc(F)c4)c(F)c3)c21 [Example 69, (E)-4-(dimethylamino)-1-(10-((4-((3-fluorobenzyl)oxy)-3-fluorophenyl)amino)-2,3-dihydro-4H-[1,4]oxazino[2,3-f]quinazolin-4-yl)but-2-en-1-one] | 500 to 5000 | ≤ 50 | ≤ 50 | ≤ 50 |  | 
16 | Cc1ccc(F)c(Oc2ccc(Nc3ncnc4ccc5c(c34)OCCN5C(=O)/C=C/CN(C)C)cc2)c1 [Example 71, (E)-4-(dimethylamino)-1-(10-((4-(2-fluoro-5-methylphenoxy)phenyl)amino)-2,3-dihydro-4H-[1,4]oxazino[2,3-f]quinazolin-4-yl)but-2-en-1-one] | 500 to 5000 | ≤ 50 | ≤ 50 | ≤ 50 |  | 
17 | CN(C)C/C=C/C(=O)N1CCOc2c1ccc1ncnc(Nc3ccc(Oc4cc(Cl)ccc4F)cc3)c21 [Example 72, (E)-4-(dimethylamino)-1-(10-((4-(5-chloro-2-fluorophenoxy)phenyl)amino)-2,3-dihydro-4H-[1,4]oxazino[2,3-f]quinazolin-4-yl)but-2-en-1-one] | 50 to 500 | ≤ 50 | ≤ 50 | ≤ 50 |  | 
18 | CN(C)C/C=C/C(=O)N1CCOc2c1ccc1ncnc(Nc3ccc(Oc4cc(F)ccc4F)cc3)c21 [Example 73, (E)-4-(dimethylamino)-1-(10-((4-(2,5-difluorophenoxy)phenyl)amino)-2,3-dihydro-4H-[1,4]oxazino[2,3-f]quinazolin-4-yl)but-2-en-1-one] | 500 to 5000 | ≤ 50 | 50 to 500 | ≤ 50 |  | 
19 | CC(Oc1ccc(Nc2ncnc3ccc4c(c23)OCCN4C(=O)/C=C/CN(C)C)cc1)c1cccc(F)c1 (centres unmarked) [Example 74, (E)-4-(dimethylamino)-1-(10-((4-(1-(3-fluorophenyl)ethoxy)phenyl)amino)-2,3-dihydro-4H-[1,4]oxazino[2,3-f]quinazolin-4-yl)but-2-en-1-one] | 500 to 5000 | ≤ 50 | 50 to 500 | ≤ 50 |  | 
20 | CN(C)C/C=C/C(=O)N1CCOc2c1ccc1ncnc(Nc3ccc(OCc4cccnc4)cc3)c21 [Example 76, (E)-4-(dimethylamino)-1-(10-((4-(pyridin-3-ylmethoxy)phenyl)amino)-2,3-dihydro-4H-[1,4]oxazino[2,3-f]quinazolin-4-yl)but-2-en-1-one] | 50 to 500 | ≤ 50 | 500 to 5000 | ≤ 50 |  | 
